Reference: patent US10765114B2, “4-amino-6-(pyridyl and 2-substitutedphenyl)-picolinates and 6-amino-2-(pyridyl and 2-substitutedphenyl)-pyrimidine-4-carboxylates and their use as herbicides” (Dow AgroSciences LLC, priority 2013, dated 2020)

Test system: Key Broadleaf Weed and Crop Species
Assay: Post-Emergent Test II (Table 5)
Assay type: in vivo
Details: Abutilon theophrasti, post-emergence, 336 h, ABUTH: velvetleaf (Abutilon theophrasti), application rate 70 (kg ai/ha; footnote: g ai/ha), read-out: Visual Growth Reduction (%) 14 Days After Application ABUTH
Procedure, shortened: (§1)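 Visual injury ratings (0 = no injury, 100 = complete kill) taken 14 days after treatment, relative to untreated controls. Compounds, in an acetone/DMSO aqueous carrier with crop oil and surfactant, were applied by track sprayer at 187 L/ha, in a twofold dilution series from the top rate, to plants at the first to second true-leaf stage.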
In the case of `COC(=O)c1nc(-c2ccc(C)nc2F)c(F)c(N)c1Cl` [Compound 76], the pest or weed control at 70 g/ha is reported as 85 to 94%.

Same assay, conditions: Abutilon theophrasti, post-emergence, 336 h, ABUTH: velvetleaf (Abutilon theophrasti), application rate 140 (kg ai/ha; footnote: g ai/ha), read-out: Visual Growth Reduction (%) 14 Days After Application ABUTH
Compound `COC(=O)c1nc(-c2ccc(C)nc2F)c(F)c(N)c1Cl` [Compound 76] has a pest or weed control at 140 g/ha of 85 to 94%.

Same assay, conditions: Amaranthus retroflexus, post-emergence, 336 h, AMARE: redroot pigweed (Amaranthus retroflexus), application rate 70 (kg ai/ha; footnote: g ai/ha), read-out: Visual Growth Reduction (%) 14 Days After Application AMARE
Compound `COC(=O)c1nc(-c2ccc(C)nc2F)c(F)c(N)c1Cl` [Compound 76] has a pest or weed control at 70 g/ha of 95 to 100%.

Same assay, conditions: Amaranthus retroflexus, post-emergence, 336 h, AMARE: redroot pigweed (Amaranthus retroflexus), application rate 140 (kg ai/ha; footnote: g ai/ha), read-out: Visual Growth Reduction (%) 14 Days After Application AMARE
`COC(=O)c1nc(-c2ccc(C)nc2F)c(F)c(N)c1Cl` [Compound 76] gave a pest or weed control at 140 g/ha of 95 to 100%.

Same assay, conditions: Brassica napus, post-emergence, 336 h, BRSSS: oilseed rape, canola (Brassica napus), application rate 70 (kg ai/ha; footnote: g ai/ha), read-out: Visual Growth Reduction (%) 14 Days After Application BRSSS
`COC(=O)c1nc(-c2ccc(C)nc2F)c(F)c(N)c1Cl` [Compound 76] showed a pest or weed control at 70 g/ha of 85 to 94%.

Same assay, conditions: Brassica napus, post-emergence, 336 h, BRSSS: oilseed rape, canola (Brassica napus), application rate 140 (kg ai/ha; footnote: g ai/ha), read-out: Visual Growth Reduction (%) 14 Days After Application BRSSS
For `COC(=O)c1nc(-c2ccc(C)nc2F)c(F)c(N)c1Cl` [Compound 76], the pest or weed control at 140 g/ha was 95 to 100%.

Same assay, conditions: Chenopodium album, post-emergence, 336 h, CHEAL: lambsquarters (Chenopodium album), application rate 70 (kg ai/ha; footnote: g ai/ha), read-out: Visual Growth Reduction (%) 14 Days After Application CHEAL
With `COC(=O)c1nc(-c2ccc(C)nc2F)c(F)c(N)c1Cl` [Compound 76] the pest or weed control at 70 g/ha was 95 to 100%.

Same assay, conditions: Chenopodium album, post-emergence, 336 h, CHEAL: lambsquarters (Chenopodium album), application rate 140 (kg ai/ha; footnote: g ai/ha), read-out: Visual Growth Reduction (%) 14 Days After Application CHEAL
For `COC(=O)c1nc(-c2ccc(C)nc2F)c(F)c(N)c1Cl` [Compound 76], the pest or weed control at 140 g/ha was 95 to 100%.

Same assay, conditions: Euphorbia heterophylla, post-emergence, 336 h, EPHHL: wild poinsettia (Euphorbia heterophylla), application rate 70 (kg ai/ha; footnote: g ai/ha), read-out: Visual Growth Reduction (%) 14 Days After Application EPHHL
`COC(=O)c1nc(-c2ccc(C)nc2F)c(F)c(N)c1Cl` [Compound 76] gave a pest or weed control at 70 g/ha of 95 to 100%.

Same assay, conditions: Helianthus annuus, post-emergence, 336 h, HELAN: sunflower (Helianthus annuus), application rate 70 (kg ai/ha; footnote: g ai/ha), read-out: Visual Growth Reduction (%) 14 Days After Application HELAN
Work on `COC(=O)c1nc(-c2ccc(C)nc2F)c(F)c(N)c1Cl` [Compound 76] yielded a pest or weed control at 70 g/ha of 85 to 94%.

Same assay, conditions: Helianthus annuus, post-emergence, 336 h, HELAN: sunflower (Helianthus annuus), application rate 140 (kg ai/ha; footnote: g ai/ha), read-out: Visual Growth Reduction (%) 14 Days After Application HELAN
In the case of `COC(=O)c1nc(-c2ccc(C)nc2F)c(F)c(N)c1Cl` [Compound 76], the pest or weed control at 140 g/ha is reported as 95 to 100%.

Same assay, conditions: Viola tricolor, post-emergence, 336 h, VIOTR: wild pansy (Viola tricolor), application rate 70 (kg ai/ha; footnote: g ai/ha), read-out: Visual Growth Reduction (%) 14 Days After Application VIOTR
`COC(=O)c1nc(-c2ccc(C)nc2F)c(F)c(N)c1Cl` [Compound 76] showed a pest or weed control at 70 g/ha of 0 to 29%.

Same assay, conditions: Viola tricolor, post-emergence, 336 h, VIOTR: wild pansy (Viola tricolor), application rate 140 (kg ai/ha; footnote: g ai/ha), read-out: Visual Growth Reduction (%) 14 Days After Application VIOTR
`COC(=O)c1nc(-c2ccc(C)nc2F)c(F)c(N)c1Cl` [Compound 76] gave a pest or weed control at 140 g/ha of 0 to 29%.

Test system: not given
Assay: not given
Details: not given
Compound `COC(=O)c1nc(-c2ccc(C)nc2F)c(F)c(N)c1Cl` [Compound 76] has a melting point of 165 to 166 °C.

Test system: Key Grass and Sedge Weeds as well as Grass Crops
Assay: Post-Emergent Test II (Table 6)
Assay type: in vivo
Details: post-emergence, 336 h, CYPSS, 70 g ai/ha, 14 days after application, read-out: Visual Growth Reduction (%) 14 Days After Application CYPSS
Procedure, shortened: as §1
`COC(=O)c1nc(-c2ccc(C)nc2F)c(F)c(N)c1Cl` [Compound 76] showed a pest or weed control at 70 g/ha of 0 to 29%.

Same assay, conditions: post-emergence, 336 h, CYPSS, 140 g ai/ha, 14 days after application, read-out: Visual Growth Reduction (%) 14 Days After Application CYPSS
In the case of `COC(=O)c1nc(-c2ccc(C)nc2F)c(F)c(N)c1Cl` [Compound 76], the pest or weed control at 140 g/ha is reported as 0 to 29%.

Same assay, conditions: post-emergence, 336 h, DIGSA: crabgrass (Digitaria sanguinalis), 70 g ai/ha, 14 days after application, read-out: Visual Growth Reduction (%) 14 Days After Application DIGSA
With `COC(=O)c1nc(-c2ccc(C)nc2F)c(F)c(N)c1Cl` [Compound 76] the pest or weed control at 70 g/ha was 75 to 84%.

Same assay, conditions: post-emergence, 336 h, DIGSA: crabgrass (Digitaria sanguinalis), 140 g ai/ha, 14 days after application, read-out: Visual Growth Reduction (%) 14 Days After Application DIGSA
Work on `COC(=O)c1nc(-c2ccc(C)nc2F)c(F)c(N)c1Cl` [Compound 76] yielded a pest or weed control at 140 g/ha of 85 to 94%.

Same assay, conditions: post-emergence, 336 h, ECHSS, 70 g ai/ha, 14 days after application, read-out: Visual Growth Reduction (%) 14 Days After Application ECHSS
`COC(=O)c1nc(-c2ccc(C)nc2F)c(F)c(N)c1Cl` [Compound 76] showed a pest or weed control at 70 g/ha of 75 to 84%.

Same assay, conditions: post-emergence, 336 h, ECHSS, 140 g ai/ha, 14 days after application, read-out: Visual Growth Reduction (%) 14 Days After Application ECHSS
For `COC(=O)c1nc(-c2ccc(C)nc2F)c(F)c(N)c1Cl` [Compound 76], the pest or weed control at 140 g/ha was 85 to 94%.

Same assay, conditions: post-emergence, 336 h, ORYSS (crop), 70 g ai/ha, 14 days after application, read-out: Visual Growth Reduction (%) 14 Days After Application ORYSS
With `COC(=O)c1nc(-c2ccc(C)nc2F)c(F)c(N)c1Cl` [Compound 76] the pest or weed control at 70 g/ha was 0 to 29%.

Same assay, conditions: post-emergence, 336 h, ORYSS (crop), 140 g ai/ha, 14 days after application, read-out: Visual Growth Reduction (%) 14 Days After Application ORYSS
Work on `COC(=O)c1nc(-c2ccc(C)nc2F)c(F)c(N)c1Cl` [Compound 76] yielded a pest or weed control at 140 g/ha of 0 to 29%.

Same assay, conditions: post-emergence, 336 h, SETFA: giant foxtail (Setaria faberi), 70 g ai/ha, 14 days after application, read-out: Visual Growth Reduction (%) 14 Days After Application SETFA
For `COC(=O)c1nc(-c2ccc(C)nc2F)c(F)c(N)c1Cl` [Compound 76], the pest or weed control at 70 g/ha was 45 to 59%.

Same assay, conditions: post-emergence, 336 h, SETFA: giant foxtail (Setaria faberi), 140 g ai/ha, 14 days after application, read-out: Visual Growth Reduction (%) 14 Days After Application SETFA
For `COC(=O)c1nc(-c2ccc(C)nc2F)c(F)c(N)c1Cl` [Compound 76], the pest or weed control at 140 g/ha was 60 to 74%.

Same assay, conditions: post-emergence, 336 h, SORVU: grain sorghum (Sorghum vulgare), 70 g ai/ha, 14 days after application, read-out: Visual Growth Reduction (%) 14 Days After Application SORVU
With `COC(=O)c1nc(-c2ccc(C)nc2F)c(F)c(N)c1Cl` [Compound 76] the pest or weed control at 70 g/ha was 45 to 59%.

Same assay, conditions: post-emergence, 336 h, SORVU: grain sorghum (Sorghum vulgare), 140 g ai/ha, 14 days after application, read-out: Visual Growth Reduction (%) 14 Days After Application SORVU
Compound `COC(=O)c1nc(-c2ccc(C)nc2F)c(F)c(N)c1Cl` [Compound 76] has a pest or weed control at 140 g/ha of 45 to 59%.

Same assay, conditions: post-emergence, 336 h, TRZSS (crop), 70 g ai/ha, 14 days after application, read-out: Visual Growth Reduction (%) 14 Days After Application TRZSS
In the case of `COC(=O)c1nc(-c2ccc(C)nc2F)c(F)c(N)c1Cl` [Compound 76], the pest or weed control at 70 g/ha is reported as 30 to 44%.

Same assay, conditions: post-emergence, 336 h, TRZSS (crop), 140 g ai/ha, 14 days after application, read-out: Visual Growth Reduction (%) 14 Days After Application TRZSS
With `COC(=O)c1nc(-c2ccc(C)nc2F)c(F)c(N)c1Cl` [Compound 76] the pest or weed control at 140 g/ha was 45 to 59%.

Same assay, conditions: post-emergence, 336 h, ZEAMX: maize, corn (Zea mays), 70 g ai/ha, 14 days after application, read-out: Visual Growth Reduction (%) 14 Days After Application ZEAMX
`COC(=O)c1nc(-c2ccc(C)nc2F)c(F)c(N)c1Cl` [Compound 76] showed a pest or weed control at 70 g/ha of 0 to 29%.

Same assay, conditions: post-emergence, 336 h, ZEAMX: maize, corn (Zea mays), 140 g ai/ha, 14 days after application, read-out: Visual Growth Reduction (%) 14 Days After Application ZEAMX
`COC(=O)c1nc(-c2ccc(C)nc2F)c(F)c(N)c1Cl` [Compound 76] gave a pest or weed control at 140 g/ha of 95 to 100%.
